According to ChEMBL document CHEMBL1125940 (Bioorg Med Chem Lett, 1991):
Positions of bridges follow the written chain, without caps; N, C: chain ends. Residues, ends and D or L forms follow the SMILES beside them.

Experiments:
Oryctolagus cuniculus [1] = organism: Oryctolagus cuniculus; assay: Effective concentration required for stimulation of vascular contraction tested in vitro using carotid arteries of New Zealand white rabbits; format: functional
Endothelin-1 receptor = target: T1, Endothelin-1 receptor (Rattus norvegicus, UniProt P26684); assay: Binding affinity towards Endothelin A receptor in A10 rat thoracic aorta smooth muscle cells using [125I]ET1 as radioligand
T1 sequence (P26684 whole entry): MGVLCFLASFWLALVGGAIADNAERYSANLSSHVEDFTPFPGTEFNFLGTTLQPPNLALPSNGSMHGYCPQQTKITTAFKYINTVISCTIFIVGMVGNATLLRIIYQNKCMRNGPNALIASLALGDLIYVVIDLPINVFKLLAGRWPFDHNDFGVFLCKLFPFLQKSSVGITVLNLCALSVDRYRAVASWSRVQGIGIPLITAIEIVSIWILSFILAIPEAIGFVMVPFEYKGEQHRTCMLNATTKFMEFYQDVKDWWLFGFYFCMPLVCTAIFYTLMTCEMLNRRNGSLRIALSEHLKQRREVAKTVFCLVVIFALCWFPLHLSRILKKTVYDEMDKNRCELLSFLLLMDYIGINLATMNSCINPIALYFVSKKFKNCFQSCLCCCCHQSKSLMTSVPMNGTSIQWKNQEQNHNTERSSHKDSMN

Oryctolagus cuniculus [2] = organism: Oryctolagus cuniculus; assay: Percent of endothelin-1 induced contraction of carotid arteries isolated from New Zealand white rabbits, tested at 1 uM concentration of compound; format: functional

Row | Kd (Endothelin-1 receptor) [nM] | Compound | Contraction (Oryctolagus cuniculus [2]) [%] | further results
1 | – | CC[C@H](C)[C@H](NC(=O)[C@H](CC(=O)O)NC(=O)[C@H](CC(C)C)NC(=O)[C@H](Cc1c[nH]cn1)NC(=O)[C@@H]1CSSC[C@H](N)C(=O)N[C@@H](C)C(=O)N[C@H]2CSSC[C@H](NC(=O)[C@H](CCC(=O)O)NC(=O)[C@H](CCCCN)NC(=O)[C@H](CC(=O)O)NC(=O)[C@H](CCSC)NC(=O)[C@H](CC(C)C)NC(=O)[C@H](CO)NC(=O)[C@H](CO)NC2=O)C(=O)N[C@@H](C(C)C)C(=O)N[C@@H](Cc2ccc(O)cc2)C(=O)N[C@@H](Cc2ccccc2)C(=O)N1)C(=O)N[C@H](C(=O)N[C@@H](Cc1c[nH]c2ccccc12)C(=O)O)[C@@H](C)CC (H-CACSSLMDKECVYFCHLDIIW-OH; disulfide 1-15, 3-11) | – | EC50 (Oryctolagus cuniculus [1]): 38 nM
2 | – | CC[C@H](C)[C@H](NC(=O)[C@H](CC(=O)O)NC(=O)[C@H](CC(C)C)NC(=O)[C@H](Cc1c[nH]cn1)NC(=O)[C@@H]1CSSC[C@H](N)C(=O)N[C@@H](CO)C(=O)N[C@H]2CSSC[C@H](NC(=O)[C@H](CCC(=O)O)NC(=O)[C@H](CCCCN)NC(=O)[C@H](CC(=O)O)NC(=O)[C@H](CCSC)NC(=O)[C@H](CC(C)C)NC(=O)[C@H](CO)NC(=O)[C@H](CO)NC2=O)C(=O)N[C@@H](C)C(=O)N[C@@H](Cc2ccc(O)cc2)C(=O)N[C@@H](Cc2ccccc2)C(=O)N1)C(=O)N[C@H](C(=O)N[C@@H](Cc1c[nH]c2ccccc12)C(=O)O)[C@@H](C)CC (H-CSCSSLMDKECAYFCHLDIIW-OH; disulfide 1-15, 3-11) | – | EC50 (Oryctolagus cuniculus [1]): 130 nM
3 | 929 | CSCC[C@@H]1NC(=O)[C@H](CC(C)C)NC(=O)[C@H](CO)NC(=O)[C@H](CO)NC(=O)[C@@H]2CSSC[C@H](NC(=O)[C@H](CCC(=O)O)NC(=O)[C@H](CCCCN)NC(=O)[C@H](CC(=O)O)NC1=O)C(=O)N[C@@H](C(C)C)C(=O)N[C@@H](Cc1ccc(O)cc1)C(=O)N[C@@H](Cc1ccccc1)C(=O)N[C@H](C(=O)N[C@@H](Cc1cnc[nH]1)C(=O)N[C@@H](CC(C)C)C(=O)N[C@@H](CC(=O)O)C(=O)N[C@@H](C)C(=O)N[C@@H](C)C(=O)N[C@@H](Cc1c[nH]c3ccccc13)C(=O)O)CSSC[C@H](N)C(=O)N[C@@H](CO)C(=O)N2 (H-CSCSSLMDKECVYFCHLDAAW-OH; disulfide 1-15, 3-11) | – | –
4 | 130 | CC[C@H](C)[C@H](NC(=O)[C@H](CC(=O)O)NC(=O)[C@H](CC(C)C)NC(=O)[C@H](Cc1cnc[nH]1)NC(=O)[C@@H]1CSSC[C@H](N)C(=O)N[C@@H](CO)C(=O)N[C@H]2CSSC[C@H](NC(=O)[C@H](CCC(=O)O)NC(=O)[C@H](CCCCN)NC(=O)[C@H](CC(=O)O)NC(=O)[C@H](C)NC(=O)[C@H](C)NC(=O)[C@H](C)NC(=O)[C@H](C)NC2=O)C(=O)N[C@@H](C(C)C)C(=O)N[C@@H](Cc2ccc(O)cc2)C(=O)N[C@@H](Cc2ccccc2)C(=O)N1)C(=O)N[C@H](C(=O)N[C@@H](Cc1c[nH]c2ccccc12)C(=O)O)[C@@H](C)CC (H-CSCAAAADKECVYFCHLDIIW-OH; disulfide 1-15, 3-11) | – | –
5 | 3070 | CC[C@H](C)[C@H](NC(=O)[C@H](CC(=O)O)NC(=O)[C@H](CC(C)C)NC(=O)[C@H](Cc1c[nH]cn1)NC(=O)[C@@H]1CSSC[C@H](N)C(=O)N[C@@H](CO)C(=O)N[C@H]2CSSC[C@H](NC(=O)[C@H](CCC(=O)O)NC(=O)[C@H](CCCCN)NC(=O)[C@H](C)NC(=O)[C@H](CCSC)NC(=O)[C@H](CC(C)C)NC(=O)[C@H](CO)NC(=O)[C@H](CO)NC2=O)C(=O)N[C@@H](C(C)C)C(=O)N[C@@H](Cc2ccc(O)cc2)C(=O)N[C@@H](Cc2ccccc2)C(=O)N1)C(=O)N[C@H](C(=O)N[C@@H](Cc1c[nH]c2ccccc12)C(=O)O)[C@@H](C)CC (H-CSCSSLMAKECVYFCHLDIIW-OH; disulfide 1-15, 3-11) | – | –
6 | 646 | CC[C@H](C)[C@H](NC(=O)[C@H](CC(=O)O)NC(=O)[C@H](CC(C)C)NC(=O)[C@H](Cc1c[nH]cn1)NC(=O)[C@@H]1CSSC[C@H](N)C(=O)N[C@@H](CO)C(=O)N[C@H]2CSSC[C@H](NC(=O)[C@H](CCC(=O)O)NC(=O)[C@H](CCCCN)NC(=O)[C@H](CC(=O)O)NC(=O)[C@H](CCSC)NC(=O)[C@H](CC(C)C)NC(=O)[C@H](CO)NC(=O)[C@H](CO)NC2=O)C(=O)N[C@@H](C(C)C)C(=O)N[C@@H](Cc2ccc(O)cc2)C(=O)N[C@@H](C)C(=O)N1)C(=O)N[C@H](C(=O)N[C@@H](Cc1c[nH]c2ccccc12)C(=O)O)[C@@H](C)CC (H-CSCSSLMDKECVYACHLDIIW-OH; disulfide 1-15, 3-11) | – | –
7 | 188 | CC[C@H](C)[C@H](NC(=O)[C@H](CC(=O)O)NC(=O)[C@H](CC(C)C)NC(=O)[C@H](Cc1cnc[nH]1)NC(=O)[C@@H]1CSSC[C@H](N)C(=O)N[C@@H](CO)C(=O)N[C@H]2CSSC[C@H](NC(=O)[C@H](C)NC(=O)[C@H](CCCCN)NC(=O)[C@H](CC(=O)O)NC(=O)[C@H](CCSC)NC(=O)[C@H](CC(C)C)NC(=O)[C@H](CO)NC(=O)[C@H](CO)NC2=O)C(=O)N[C@@H](C(C)C)C(=O)N[C@@H](Cc2ccc(O)cc2)C(=O)N[C@@H](Cc2ccccc2)C(=O)N1)C(=O)N[C@H](C(=O)N[C@@H](Cc1c[nH]c2ccccc12)C(=O)O)[C@@H](C)CC (H-CSCSSLMDKACVYFCHLDIIW-OH; disulfide 1-15, 3-11) | – | –
8 | – | CC[C@H](C)[C@H](NC(=O)[C@H](CC(=O)O)NC(=O)[C@H](CC(C)C)NC(=O)[C@H](Cc1c[nH]cn1)NC(=O)[C@@H]1CSSC[C@H](NC(C)=O)C(=O)N[C@@H](CO)C(=O)N[C@H]2CSSC[C@H](NC(=O)[C@H](CCC(=O)O)NC(=O)[C@H](CCCCN)NC(=O)[C@H](CC(=O)O)NC(=O)[C@H](CCSC)NC(=O)[C@H](CC(C)C)NC(=O)[C@H](CO)NC(=O)[C@H](CO)NC2=O)C(=O)N[C@@H](C(C)C)C(=O)N[C@@H](Cc2ccc(O)cc2)C(=O)N[C@@H](Cc2ccccc2)C(=O)N1)C(=O)N[C@H](C(=O)N[C@@H](Cc1c[nH]c2ccccc12)C(=O)O)[C@@H](C)CC | 36 | –
9 | 2.11 | CC[C@H](C)[C@H](NC(=O)[C@H](CC(=O)O)NC(=O)[C@H](CC(C)C)NC(=O)[C@H](Cc1cnc[nH]1)NC(=O)[C@@H]1CSSC[C@H](N)C(=O)N[C@@H](CO)C(=O)N[C@H]2CSSC[C@H](NC(=O)[C@H](CCC(=O)O)NC(=O)[C@H](CCCCN)NC(=O)[C@H](CC(=O)O)NC(=O)[C@H](CCSC)NC(=O)[C@H](CC(C)C)NC(=O)[C@H](CO)NC(=O)[C@H](CO)NC2=O)C(=O)N[C@@H](C(C)C)C(=O)N[C@@H](Cc2ccc(O)cc2)C(=O)N[C@@H](Cc2ccccc2)C(=O)N1)C(=O)N[C@@H](C)C(=O)N[C@@H](Cc1c[nH]c2ccccc12)C(=O)O (H-CSCSSLMDKECVYFCHLDIAW-OH; disulfide 1-15, 3-11) | – | –
10 | > 20000 | CC[C@H](C)[C@H](NC(=O)[C@H](CC(=O)O)NC(=O)[C@H](CC(C)C)NC(=O)[C@H](Cc1c[nH]cn1)NC(=O)[C@@H]1CSSC[C@H](N)C(=O)N[C@@H](CO)C(=O)N[C@H]2CSSC[C@H](NC(=O)[C@H](CCC(=O)O)NC(=O)[C@H](CCCCN)NC(=O)[C@H](CC(=O)O)NC(=O)[C@H](CCSC)NC(=O)[C@H](CC(C)C)NC(=O)[C@H](CO)NC(=O)[C@H](CO)NC2=O)C(=O)N[C@@H](C(C)C)C(=O)N[C@@H](Cc2ccc(O)cc2)C(=O)N[C@@H](Cc2ccccc2)C(=O)N1)C(=O)N[C@H](C(=O)N[C@@H](C)C(=O)O)[C@@H](C)CC (H-CSCSSLMDKECVYFCHLDIIA-OH; disulfide 1-15, 3-11) [listing 1 of 2 here] | – | –
11 | – | CC[C@H](C)[C@H](NC(=O)[C@H](CC(=O)O)NC(=O)[C@H](CC(C)C)NC(=O)[C@H](Cc1c[nH]cn1)NC(=O)[C@@H]1CSSC[C@H](N)C(=O)N[C@@H](CO)C(=O)N[C@H]2CSSC[C@H](NC(=O)[C@H](CCC(=O)O)NC(=O)[C@H](CCCCN)NC(=O)[C@H](CC(=O)O)NC(=O)[C@H](CCSC)NC(=O)[C@H](CC(C)C)NC(=O)[C@H](CO)NC(=O)[C@H](CO)NC2=O)C(=O)N[C@@H](C(C)C)C(=O)N[C@@H](Cc2ccc(O)cc2)C(=O)N[C@@H](Cc2ccccc2)C(=O)N1)C(=O)N[C@H](C(=O)N[C@@H](C)C(=O)O)[C@@H](C)CC (H-CSCSSLMDKECVYFCHLDIIA-OH; disulfide 1-15, 3-11) [listing 2 of 2 here] | 0 | –
12 | – | CSCC[C@@H]1NC(=O)[C@H](CC(C)C)NC(=O)[C@H](CO)NC(=O)[C@H](CO)NC(=O)[C@@H]2CSSC[C@H](NC(=O)[C@H](CCC(=O)O)NC(=O)[C@H](CCCCN)NC(=O)[C@H](CC(=O)O)NC1=O)C(=O)N[C@@H](C(C)C)C(=O)N[C@@H](Cc1ccc(O)cc1)C(=O)N[C@@H](Cc1ccccc1)C(=O)N[C@H](C(=O)N[C@@H](Cc1c[nH]cn1)C(=O)N[C@@H](CC(C)C)C(=O)N[C@@H](CC(=O)O)C(=O)N[C@@H](C)C(=O)N[C@@H](C)C(=O)N[C@@H](Cc1c[nH]c3ccccc13)C(=O)O)CSSC[C@H](N)C(=O)N[C@@H](CO)C(=O)N2 (H-CSCSSLMDKECVYFCHLDAAW-OH; disulfide 1-15, 3-11) | 50 | –
13 | – | CC[C@H](C)[C@H](NC(=O)[C@H](CC(=O)O)NC(=O)[C@H](C)NC(=O)[C@H](Cc1c[nH]cn1)NC(=O)[C@@H]1CSSC[C@H](N)C(=O)N[C@@H](CO)C(=O)N[C@H]2CSSC[C@H](NC(=O)[C@H](CCC(=O)O)NC(=O)[C@H](CCCCN)NC(=O)[C@H](CC(=O)O)NC(=O)[C@H](CCSC)NC(=O)[C@H](CC(C)C)NC(=O)[C@H](CO)NC(=O)[C@H](CO)NC2=O)C(=O)N[C@@H](C(C)C)C(=O)N[C@@H](Cc2ccc(O)cc2)C(=O)N[C@@H](Cc2ccccc2)C(=O)N1)C(=O)N[C@H](C(=O)N[C@@H](Cc1c[nH]c2ccccc12)C(=O)O)[C@@H](C)CC (H-CSCSSLMDKECVYFCHADIIW-OH; disulfide 1-15, 3-11) | 0 | –
